Laboratory results reported in article PMC10788856, “Mimicking Nonribosomal Peptides from the Marine Actinomycete Streptomyces sp. H-KF8 Leads to Antimicrobial Peptides” (ACS Infectious Diseases, 2023).
Numbered stars: 1 amine (or outer) side, 2 acyl side, 3 side chain; on linkers, the order of the positions; unused ones are H or OH. Bridge positions count the residues as written; N and C are the ends. Square brackets hold non-standard residues; d marks the D form. Peptide text beside a SMILES is read from it. Tyr(3-NO2) = N[C@@H](Cc1ccc(O)c([N+](=O)[O-])c1)C(=O)O; Glutaryl = O=C(CCCC(=O)[*:2])[*:1]; Orn = NCCC[C@H](N)C(=O)O

Tests used:
E. coli CCUG31246 [1] = assay: Propidium iodide staining (pore formation); format: cell-based
Description: Due to the overall similarity of the peptides’ cytological profiles to that of polymyxin B, we further tested their ability to form pores in the cell membrane. To this end, we used the fluorescence probe propidium iodide, which cannot cross intact membranes but can enter cells through pores of sufficient size.[39]
Pore formation was investigated with the fluorescence dye propidium iodide as described previously[56] with minor modifications. E. coli CCUG31246 was grown to an OD600 of 0.3 and subsequently treated with different peptides for 10 and 60 min. Samples were stained with 1 μg/mL propidium iodide for 15 min (added 5 min before adding antibiotics for the 10 min time point and after 45 min of antibiotic treatment for the 60 min time point), spotted on 1.2% agarose films, and sealed with a gene frame. Microscopy was performed as described above. The fluorescence intensity of the different samples was analyzed with MicrobeJ. For detection of bacterial cells from phase contrast images, parameters were set to an area of 1.5-max, length of 1-max, width 0.5–2.5, curvature 0–1.5, and an angularity of 0–0.5. Fluorescence intensity parameters were set to an area of 1.5-max, length of 1-max, and width 0.5–2.5. All other parameters remained at default settings.

E. coli CCUG31246 [2] = format: cell-based; conditions: E. coli CCUG31246; 1:10 BHI; 5 × 10^5 CFU/mL; 37 °C, 16 h, steady agitation; used as 1× MIC
Description: MICs were performed under the same growth conditions used for mode of action analysis following the guidelines issued by the Clinical Laboratory Standardization Institute (CLSI) with slight modifications. Serial two-fold dilutions of the peptides were prepared in 1:10 BHI in a sterile 96-well plate and subsequently inoculated with 5 × 10^5 CFU/mL of E. coli CCUG31246. […] The following MICs were obtained: C3: 512 μg/mL, L3: 64 μg/mL, and L3-K: 128 μg/mL. These concentrations were used for all mechanistic experiments. Polymyxin B was used as a positive control in all assays at a final concentration of 10 μg/mL.

[3] = tested on: Candida albicans (ATCC 64549/CCUG31028); assay: Minimum microbicidal concentration (MMC99) assay; format: cell-based, C. albicans; conditions: BHI diluted 1/100, 37 °C, median, n = 3
Description: The microbicidal activity of the synthetic peptides was assessed against S. aureus (ATCC 12600; American Type Culture Collection, Manassas, VA, USA), Escherichia coli (CCUG 31246; Culture Collection, University of Gothenburg, Sweden), and Candida albicans (ATCC 64549/CCUG31028) using an MMC assay, as described previously by […] et al. (specific details in Supporting Information, pages 10, 11).[28] The assay was performed in BHI diluted 1/100 (BHI100). […] page 11: Table S5. Energy and structural ensembles of synthesized peptides. […] Energy -3887.06 -3620.88 -4968.42 -2163.76 -2646.75 Van der Waals solv. Energy 117.32 91.57 183.20 -88.88 -139.89 Mean RMSD* (Å), mean±SD […] Heavy atoms 1.87 ± 0.33 1.77 ± 0.50 0.98 ± 0.34 0.63 ±0.22 2.88 ±0.62 MMC99 activity including salt stability measurements Antimicrobial activity of L2 and L3 in the presence of NaCl. 1Table S6. Peptide MMC99 (μg/ml) sin NaCl S. aureus E.coli C. albicans (mM) 2[…] 0 50 25 25 85 - - - - - - >200 >200 >200 150 - - - - - - >200 >200 >200 3L 0 12.5 12.5 25 12,5 6.3 6.3 12.5 6.3 12.5 […] 150 >400 >400 (-)2 >400 >400 >400 >200 >200 >200 […] or 150 mM NaCl. L2 and L3 were serially diluted in twofold steps with a starting dilution of 200 μg/ml […] All sample dilutions were run in duplicates (L2) or triplicates (L3). 2 The growth of S. aureus at 24 h in BHI 100 with 85 or 150 mM NaCl was reduced. Minimum microbicidal concentration (MMC), killing 99% of the inoculum. All microorganisms were cultured in brain-heart infusion broth (BHI) overnight on a shaker at 37°C. The cultures were thereafter transferred to fresh BHI broth in volumes constituting 10% of total, and incubated for an additional 2 h to reach exponential growth phase. The bacterial cultures were washed once in BHI diluted 1/100 (BHI100), followed by resuspension in BHI100. The cell suspensions were diluted to a density of […] (bacteria) or 2x10^7 CFU/ml (yeast), as estimated by optical density measurement at 590 nm. […] Serum stability Figure S 133. […] A) peptide L2 B) peptide L3. C) peptide L3-K. D) peptide C3.

[4] = tested on: E. coli MC4100 pABCON2-fhuA ΔC/Δ4L; assay: DiSC(3)5 microscopy (membrane potential), outer membrane permeable strain; format: cell-based; conditions: 1× MIC; 10 and 60 min; 0.5 μM DiSC(3)5
Description: To test this hypothesis, we employed an E. coli strain that overexpresses the outer membrane porin FhuA, making these cells more permeable to most fluorescence dyes including DiSC(3)5.[41]
The membrane potential of E. coli CCUG31246 and E. coli MC4100 carrying pABCON2-fhuA ΔC/Δ4L was measured by DiSC(3)5 microscopy according to ref. ([40]) with minor modifications. Cells were grown in 1:10 BHI containing 50 μg/mL bovine serum albumin to an OD600 of 0.3 prior to antibiotic treatment with the respective peptides for 10 and 60 min. Samples were stained with 0.5 μM DiSC(3)5 for 15 min (added 5 min before adding antibiotics for the 10 min time point and after 45 min of antibiotic treatment for the 60 min time point). Stained samples were spotted on 1.2% agarose, sealed with a gene frame, and imaged immediately. Microscopy was performed as described above, and fluorescence intensity was analyzed with the same parameters used for propidium iodide detection.

[5] = 37 °C, RP-HPLC
Description: Peptide stability in serum is another limiting factor for AMPs as novel antibiotics.[30]
Peptide serum stability was performed according to D́Aloisio et al.[30] and Chen et al.[51] with some minor modifications. The serum stability was investigated using human serum (Sigma-Aldrich) from Human male AB plasma, USA origin, sterile-filtered. 250 μL serum was temperature-equilibrated at 37 °C and 100 μL aqueous peptide solution (L2: 1 mM; L3: 0.9 mM; L3-K: 0.7 mM; and C3: 0.5 mM) was added. RP-HPLC was measured at time intervals of 0, 0.5, 1, 4, and 24 h. For RP-HPLC samples, 30 μL of peptide solution was taken, 7 μL of Fmoc-Gly solution (4 mM) was added, and 2 μL of the sample was injected to HPLC. […]
Figure S 133. RP-HPLC chromatogram (gradient from 10 to 90% acetonitrile in water over 10 min at 2
ml/min, detection at 254 nm) of peptides tested for serum stability. A) peptide L2 B) peptide L3. C)
(1 picture or pasted object on this page, not shown here)

**Q.** For CC(C)[C@H]1NC(=O)[C@H](CCCN)NC(=O)[C@H]([C@@H](C)O)NC(=O)[C@H](CCCN)NC(=O)[C@H](Cc2c[nH]c3ccccc23)NC(=O)[C@@H](C)NC(=O)[C@@H](C(C)C)NC(=O)[C@@H](C)NC(=O)[C@H](Cc2c[nH]c3ccccc23)NC(=O)CCCC(=O)NCCCC[C@@H](C(N)=O)NC(=O)[C@H](Cc2ccc(O)c([N+](=O)[O-])c2)NC1=O [C3] (W[dA][dV][dA]W[Orn]T[Orn][dV][Tyr(3-NO2)]K-NH2; linker N-11 via Glutaryl), which “cells remaining unstained by propidium iodide after 60 min” value (E. coli CCUG31246 [1]; 1× MIC (64 μg/mL L3, 128 μg/mL L3-K, 512 μg/mL C3), 60 min, 1 μg/mL propidium iodide) is on record?
**A.** 64%

**Q.** What about the “propidium iodide uptake” value (E. coli CCUG31246 [1]; 1× MIC of peptide, polymyxin B 10 μg/mL, 10 and 60 min) of the same compound?
**A.** only a small subpopulation of cells

**Q.** What about the “MIC obtained for mechanistic experiments” value (E. coli CCUG31246 [2]) of the same compound?
**A.** 512 µg/mL

**Q.** What about the “C. albicans MMC99 2 h” value ([3]; 2 h) of the same compound?
**A.** >100 µg/mL

**Q.** What about the “C. albicans MMC99 6 h” value ([3]; 6 h) of the same compound?
**A.** >100 µg/mL

**Q.** And the “C. albicans MMC99 24 h” value ([3]; 24 h)?
**A.** >100 µg/mL

**Q.** What about the “membrane depolarization in the FhuA-overexpressing strain” value [4] of the same compound?
**A.** stronger depolarization in the FhuA-overexpressing strain

**Q.** What about the “stability in human serum” value ([5]; human serum from male AB plasma, 250 μL serum + 100 μL aqueous peptide solution (L2 1 mM; L3 0.9 mM; L3-K 0.7 mM; C3 0.5 mM), 0, 0.5, 1, 4, 24 h, Fmoc-Gly internal standard) of the same compound?
**A.** stable after 24 h

**Q.** And the “additional peaks / shoulder in chromatogram after 24 h in serum, total volume percentage” value ([5]; human serum, 24 h, detection at 254 nm)?
**A.** does not show any additional signal
